# Experimental data as given in US9012433B2, “Substituted tetracycline compounds” (Paratek Pharmaceuticals, Inc., priority 2006, dated 2015).
# Where two headings read alike, the source gives them in different places.
# Tests used:
# Type in all cases: cell-based
# in vitro = assay: in vitro
# Experimental: Mammalian cell cytotoxicity was assessed to evaluate potential in vivo risks associated with the tetracycline compounds of the invention. A soluble, non-toxic redox dye (“Resazurin”; Alamar Blue) was used to assess a tetracycline compound's effect on cellular metabolism. At the onset of the experiment, cultures of mammalian COS-1 or CHO cells were washed, trypsinized, and harvested. […] On the next day, serial dilutions of test drug were prepared under sterile conditions and transferred to cell plates. Plates were then incubated under the above conditions for 24 hours. Following the incubation period, the media/drug was aspirated, and 50 μL of resazurin was added. Plates were then incubated under the above conditions for 2 hours and then in the dark at room temperature for an additional 30 minutes. Fluorescence measurements were taken (excitation 535 nm, emission 590 nm) and toxic effects in treated versus control cells were compared based on the degree of fluorescence in each well.
# P. acnes ATCC 6919 = assay: Antibacterial MIC, CLSI broth microdilution; details: Cutibacterium acnes, ATCC6919; 35° C., 18-24 hours
# Experimental: (§1) Grain (−) and gram (+) antibacterial minimum inhibitory concentration (MIC) values (μg/mL) were obtained using CLSI methodology for anti-bacterial susceptibility testing. On each day of testing, serial dilutions of compounds were prepared in microdilution plates using a Tecan robotic workstation. Mueller Hinton broth cultures of representative sensitive and resistant gram negative strains were grown or adjusted to match the turbidity of a 0.5 McFarland standard. 1:200 dilutions were made in an appropriate broth (cation supplemented Mueller Hinton broth) to allow a final inoculum of 1×10^5 cfu. Plates were incubated at 35° C. in ambient air for 18-24 hours, were read spectrophotometrically and checked manually for evidence of bacterial growth. The lowest dilution of compound that inhibited growth was recorded as the MIC. Lysed horse blood was used to supplement broth for testing S. pneumoniae. The MIC's for each compound were assessed against S. aureus, S. pneumoniae, P. acnes, E. coli and B. theta.
# S. aureus RN450 = assay: Antibacterial MIC, CLSI broth microdilution; details: Staphylococcus aureus, RN450; 35° C., 18-24 hours
# Experimental: as §1
# E. coli MG 1655 = assay: Antibacterial MIC, CLSI broth microdilution; details: Escherichia coli, MG1655; 35° C., 18-24 hours
# Experimental: as §1
# [1] = test system: S. pneumoniae 157E - Strep; assay: Antibacterial MIC, CLSI broth microdilution; details: Streptococcus pneumoniae, 157ESTREP; 35° C., 18-24 hours; lysed horse blood
# Experimental: as §1
# E. coli ATCC 25922 = assay: Antibacterial MIC, CLSI broth microdilution; details: Escherichia coli, ATCC25922; 35° C., 18-24 hours
# Experimental: as §1
# [2] = test system: B. thetaiotaomicron ATCC 29741; assay: Antibacterial MIC, CLSI broth microdilution; details: Bacteroides thetaiotaomicron
# Experimental: as §1
# P. acnes ATCC 11827 = assay: Antibacterial MIC, CLSI broth microdilution; details: Cutibacterium acnes, ATCC11827; 35° C., 18-24 hours
# Experimental: as §1
# [3] = ATCC29741, 35° C., 18-24 hours, read-out: MIC B. thetaiotaomicron ATCC 29741
# [4] = ATCC29741, read-out: MIC B. thetaiotaomicron ATCC 29741
SMILES,IC50 at 24 h (in vitro; African green monkey),IC50 at 24 h (in vitro; Chinese hamster),MIC (P. acnes ATCC 6919),MIC (S. aureus RN450),MIC (E. coli MG 1655),MIC [1],MIC (E. coli ATCC 25922),"MIC [2, 3]",MIC (P. acnes ATCC 11827),"MIC [2, 4]"
CN(C)[C@@H]1C(O)=C(C(N)=O)C(=O)[C@@]2(O)C(O)=C3C(=O)c4c(O)ccc(CN5CCCO5)c4C[C@H]3C[C@@H]12 [U],> 75 µg/mL,35 to 75 µg/mL,< 4 µg/mL,< 4 µg/mL,4 to 8 µg/mL,< 4 µg/mL,< 4 µg/mL,4 to 8 µg/mL,< 4 µg/mL,
CN(C)[C@@H]1C(O)=C(C(N)=O)C(=O)[C@@]2(O)C(O)=C3C(=O)c4c(O)ccc(CN5CCCCO5)c4C[C@H]3C[C@@H]12 [DR],35 to 75 µg/mL,35 to 75 µg/mL,< 4 µg/mL,< 4 µg/mL,> 8 µg/mL,< 4 µg/mL,4 to 8 µg/mL,4 to 8 µg/mL,< 4 µg/mL,
CN(C)[C@@H]1C(O)=C(C(N)=O)C(=O)[C@@]2(O)C(O)=C3C(=O)c4c(O)ccc(-c5cnoc5)c4C[C@H]3C[C@@H]12 [K],< 35 µg/mL,< 35 µg/mL,< 4 µg/mL,< 4 µg/mL,< 4 µg/mL,< 4 µg/mL,< 4 µg/mL,< 4 µg/mL,< 4 µg/mL,
CN(C)[C@H]1C(O)=C(C(N)=O)C(=O)[C@@]2(O)C(O)=C3C(=O)c4cccc(-c5ncccn5)c4C[C@H]3C[C@@H]12 [H],> 75 µg/mL,> 75 µg/mL,4 to 8 µg/mL,< 4 µg/mL,> 8 µg/mL,< 4 µg/mL,> 8 µg/mL,> 8 µg/mL,4 to 8 µg/mL,
CN(C)[C@@H]1C(O)=C(C(N)=O)C(=O)[C@@]2(O)C(O)=C3C(=O)c4c(O)ccc(-c5ncco5)c4C[C@H]3C[C@@H]12 [J],< 35 µg/mL,< 35 µg/mL,< 4 µg/mL,< 4 µg/mL,< 4 µg/mL,< 4 µg/mL,< 4 µg/mL,< 4 µg/mL,< 4 µg/mL,
CN(C)[C@H]1C(O)=C(C(N)=O)C(=O)[C@@]2(O)C(O)=C3C(=O)c4c(O)ccc(CNOCCF)c4C[C@H]3C[C@@H]12 [EB],,,< 4 µg/mL,< 4 µg/mL,> 8 µg/mL,4 to 8 µg/mL,> 8 µg/mL,4 to 8 µg/mL,< 4 µg/mL,
CC1CCN(Cc2cccc3c2C[C@H]2C[C@H]4[C@@H](N(C)C)C(O)=C(C(N)=O)C(=O)[C@@]4(O)C(O)=C2C3=O)CC1 [G],> 75 µg/mL,> 75 µg/mL,4 to 8 µg/mL,< 4 µg/mL,> 8 µg/mL,< 4 µg/mL,4 to 8 µg/mL,> 8 µg/mL,4 to 8 µg/mL,
"CCO/N=C(/CCN(C)C)c1ccc(O)c2c1C[C@H]1C[C@H]3[C@@H](N(C)C)C(O)=C(C(N)=O)C(=O)[C@@]3(O)C(O)=C1C2=O [AN, (4R,4aS,5aR,12aS)-4-Dimethylamino-7-(3-dimethylamino-1-ethoxyimino-propyl)-3,10,12,12a-tetrahydroxy-1,11-dioxo-1,4,4a,5,5a,6,11,12a-octahydro-naphthacene-2-carboxylic acid amide]",> 75 µg/mL,> 75 µg/mL,< 4 µg/mL,< 4 µg/mL,< 4 µg/mL,< 4 µg/mL,< 4 µg/mL,4 to 8 µg/mL,< 4 µg/mL,
CC(=O)c1cccc2c1C[C@H]1C[C@H]3[C@@H](N(C)C)C(O)=C(C(N)=O)C(=O)[C@@]3(O)C(O)=C1C2=O [D],> 75 µg/mL,> 75 µg/mL,4 to 8 µg/mL,< 4 µg/mL,> 8 µg/mL,< 4 µg/mL,> 8 µg/mL,> 8 µg/mL,4 to 8 µg/mL,
CC(=O)c1cccc2c1C[C@H]1C[C@H]3[C@H](N(C)C)C(O)=C(C(N)=O)C(=O)[C@@]3(O)C(O)=C1C2=O [E],> 75 µg/mL,> 75 µg/mL,< 4 µg/mL,< 4 µg/mL,> 8 µg/mL,< 4 µg/mL,4 to 8 µg/mL,> 8 µg/mL,< 4 µg/mL,
"CN(C)[C@@H]1C(O)=C(C(N)=O)C(=O)[C@@]2(O)C(O)=C3C(=O)c4c(O)ccc(/C=N/n5cccc5)c4C[C@H]3C[C@@H]12 [AC, (4S,4aS,5aR,12aS)-4-Dimethylamino-3,10,12,12a-tetrahydroxy-1,11-dioxo-7-(pyrrol-1-yliminomethyl)-1,4,4a,5,5a,6,11,12a-octahydro-naphthacene-2-carboxylic acid amide]",< 35 µg/mL,< 35 µg/mL,< 4 µg/mL,< 4 µg/mL,> 8 µg/mL,< 4 µg/mL,4 to 8 µg/mL,4 to 8 µg/mL,< 4 µg/mL,
CON(C)Cc1ccc(O)c2c1C[C@H]1C[C@H]3[C@@H](N(C)C)C(O)=C(C(N)=O)C(=O)[C@@]3(O)C(O)=C1C2=O [Y],> 75 µg/mL,> 75 µg/mL,< 4 µg/mL,< 4 µg/mL,> 8 µg/mL,4 to 8 µg/mL,> 8 µg/mL,,< 4 µg/mL,> 8 µg/mL
COC(=O)CONCc1ccc(O)c2c1C[C@H]1C[C@H]3[C@H](N(C)C)C(O)=C(C(N)=O)C(=O)[C@@]3(O)C(O)=C1C2=O [ED],< 35 µg/mL,< 35 µg/mL,< 4 µg/mL,< 4 µg/mL,4 to 8 µg/mL,< 4 µg/mL,4 to 8 µg/mL,< 4 µg/mL,< 4 µg/mL,
"CCO/N=C(\C)CN(C)Cc1ccc(O)c2c1C[C@H]1C[C@H]3[C@H](N(C)C)C(O)=C(C(N)=O)C(=O)[C@@]3(O)C(O)=C1C2=O [AL, (4S,4aS,5aR,12aS)-4-Dimethylamino-7-[(2-ethoxyimino-propyl)-methyl-amino]-methyl-3,10,12,12a-tetrahydroxy-1,11-dioxo-1,4,4a,5,5a,6,11,12a-octahydro-naphthacene-2-carboxylic acid amide]",< 35 µg/mL,< 35 µg/mL,< 4 µg/mL,< 4 µg/mL,4 to 8 µg/mL,< 4 µg/mL,4 to 8 µg/mL,4 to 8 µg/mL,< 4 µg/mL,
CCONCc1ccc(O)c2c1C[C@H]1C[C@H]3[C@@H](N(C)C)C(O)=C(C(N)=O)C(=O)[C@@]3(O)C(O)=C1C2=O [AM],> 75 µg/mL,> 75 µg/mL,< 4 µg/mL,4 to 8 µg/mL,> 8 µg/mL,4 to 8 µg/mL,> 8 µg/mL,4 to 8 µg/mL,< 4 µg/mL,
CN(C)[C@@H]1C(O)=C(C(N)=O)C(=O)[C@@]2(O)C(O)=C3C(=O)c4c(O)ccc(CNOC(C)(C)C)c4C[C@H]3C[C@@H]12 [AB],< 35 µg/mL,< 35 µg/mL,< 4 µg/mL,< 4 µg/mL,> 8 µg/mL,< 4 µg/mL,4 to 8 µg/mL,4 to 8 µg/mL,< 4 µg/mL,
CN(C)[C@@H]1C(O)=C(C(N)=O)C(=O)[C@@]2(O)C(O)=C3C(=O)c4c(O)ccc(CN5OCCC5=N)c4C[C@H]3C[C@@H]12 [EC],,,,< 4 µg/mL,> 8 µg/mL,< 4 µg/mL,> 8 µg/mL,,,
CON(C)Cc1ccc2c(c1O)C(=O)C1=C(O)[C@]3(O)C(=O)C(C(N)=O)=C(O)[C@@H](N(C)C)[C@@H]3C[C@@H]1C2 [GL],35 to 75 µg/mL,35 to 75 µg/mL,4 to 8 µg/mL,4 to 8 µg/mL,> 8 µg/mL,4 to 8 µg/mL,> 8 µg/mL,,4 to 8 µg/mL,4 to 8 µg/mL
"C/C(=N\OCC(F)(F)F)c1cc(N)c(O)c2c1C[C@H]1C[C@H]3[C@H](N(C)C)C(O)=C(C(N)=O)C(=O)[C@@]3(O)C(O)=C1C2=O [DT, (4S,4aS,5aR,12aS)-9-Amino-4-dimethylamino-3,10,12,12a-tetrahydroxy-1,1,1-dioxo-7-[1-(2,2,2-trifluoro-ethoxyimino)-ethyl]-1,4,4a,5,5a,6,11,12a-octahydro-naphthacene-2-carboxylic acid amide]",,,< 4 µg/mL,< 4 µg/mL,4 to 8 µg/mL,< 4 µg/mL,4 to 8 µg/mL,4 to 8 µg/mL,< 4 µg/mL,
